Results taken from US7935359B2, “Use of L 2-thiohistidine or one of its derivatives as a depigmenting agent in cosmetics” (LVMH Recherche, priority 2006, dated 2011).

System: melanocytes of separated mammary epidermis
Test: Depigmenting activity on separated epidermis incubated with L-DOPA/active principle solution, optical microscopy and counting of melanin grains
Format: cell-based, human
Details: for depigmenting activity: separated epidermis, L-DOPA; for grains of melanin counted, Mean: mean of 3 tests
Experimental: In this Example a quantitative comparative test is carried out on a separated epidermis in order to show the depigmenting activity of L-2-thiohistidine compared with various depigmenting agents known in the prior art, especially kojic acid or ergothioneine, and also compared with a control sample comprising DOPA oxidase.
The procedure of this test is similar to that described in Example II of the LVMH RECHERCHE document FR-A-2,867,384 published on 16 Sep. 2005, to which those skilled in the art may usefully refer and which is incorporated by reference.
Frozen mammary epidermis originating from plastic surgery on a person, reference P148AB39, are separated by incubation in 2N NaBr for 1 h 45 min at 37° C. They were fixed in a formalized fixative, buffered, rinsed and brought into contact with a volume/volume mixture of L-DOPA/active principle solution. After incubation, they were rinsed and mounted between slides and cover slips with mounting medium.
The epidermis were observed by optical microscopy with a magnification of 10.
The depigmenting activity which can be seen in FIGS. 1 to 5 was quantified statistically by counting the grains of melanin over a series of 3 tests. The values are shown in the Table below, in which the values obtained for the Student test are specified for ergothioneine versus L-2-thiohistidine and for kojic acid versus L-2-thiohistidine at the same concentration. The Student test is said to be significant if the value obtained is less than 0.05. Conclusions

NC(Cc1c[nH]c(=S)[nH]1)C(=O)O [L-2-thiohistidine, alpha-amino-2,3-dihydro-2-thioxo-1H-imidazole-4-propanoic acid]
grains of melanin counted, Test 1 (50 μg): 162
grains of melanin counted, Test 2 (50 μg): 178
grains of melanin counted, Test 3 (50 μg): 176
depigmenting activity (50 μg/ml): 60%
grains of melanin counted, Mean (50 μg): 172
grains of melanin counted, Test 1 (150 μg): 102
grains of melanin counted, Test 2 (150 μg): 115
grains of melanin counted, Test 3 (150 μg): 116
depigmenting activity compared with reference agents (in words) (150 μg/ml, versus kojic acid): very good depigmenting activity similar to that of the previously known kojic acid
depigmenting activity (150 μg/ml): 75%
grains of melanin counted, Mean (150 μg): 111
depigmenting activity compared with reference agents (in words) (comparable concentration, versus ergothioneine): better depigmenting activity than ergothioneine

O=c1cc(CO)occ1O [kojic acid, reference compound]
grains of melanin counted, Test 1 (150 μg): 124
grains of melanin counted, Test 2 (150 μg): 137
grains of melanin counted, Test 3 (150 μg): 138
depigmenting activity (150 μg/ml): ~75%
grains of melanin counted, Mean (150 μg): 133

C[N+](C)(C)[C@@H](Cc1c[nH]c(=S)[nH]1)C(=O)[O-] [ergothioneine, reference compound]
grains of melanin counted, Test 1 (50 μg): 194
grains of melanin counted, Test 2 (50 μg): 210
grains of melanin counted, Test 3 (50 μg): 190
depigmenting activity (50 μg/ml): ~45%
grains of melanin counted, Mean (50 μg): 198
